The source of these data is patent US6140091A, “Anti-idiotype vaccines to elicit catalytic antibodies” (Boston Biomedical Research Institute, priority 1998, dated 2000).

Test [1] concerns MOPC 167 catalytic antibody (binding of anti-idiotype antibody 1F1). Briefly: Competitive ELISA using the free transition state analog: binding of anti-Id 1F1 to MOPC 167. Also on record: species or system mouse. Particulars: 10 mM TS analog present. The procedure:
(§1) The first competitive ELISA uses the MOPC 167 catalytic antibody adsorbed onto microtitre plate wells. This assay measures the blocking effect of the p-nitrophenylphosphorylcholine transition state analog on the binding of anti-idiotype antibodies to MOPC 167 (FIG. 2, A versus B).
(§2) A true combining site-reactive anti-idiotype antibody will be prevented from interacting with MOPC 167 if this assay is performed in the presence of an excess of the transition state analog because that analog will preoccupy the catalytic combining site (FIG. 2, B). Since the anti-idiotype is blocked from attaching to MOPC 167 and will subsequently wash away, a reduced signal is obtained after the peroxidase-labeled, γ-specific anti-mouse IgG reagent and its substrate are added (compare FIG. 2, A, unblocked control and B, transition state analog blockade).
(§3) Binding of 4G4 and 1F1 to MOPC 167 was inhibited by 67% and 70% respectively when 10 mM p-nitrophenylphosphorylcholine TS analog was present.
For orientation: An ELISA detects its analyte on a solid surface through an enzyme-linked reagent.

Test [2] has as its system MOPC 167 catalytic antibody (binding of anti-idiotype antibody 4G4). Put plainly: Competitive ELISA using the free transition state analog: binding of anti-Id 4G4 to MOPC 167. The note with it: 10 mM TS analog present. Also on record: species or system mouse. Here is the method:
as §1, §2, §3

Test [3] relates to mouse myeloma catalytic antibody MOPC 167 (IgA). Put plainly: MOPC 167 catalyzed acetylthiocholine hydrolysis (esterase activity, Ellman's reagent). The class given is biochemical. Particulars: acetylthiocholine as substrate; analog concentration not given. The text has this: It was recognized that the phosphocholine moiety might serve as a transition state analog for ester hydrolysis according to the scheme shown in FIG. 5. MOPC 167 was therefore tested for esterase activity using acetylthiocholine as a substrate and Ellman's reagent (E-ss-E) for the detection of thiol production (Izadyar et al., Proceedings of the National Academy of Sciences of the United States of America 90: 8876-80 (1993)).
Analysis of the Lineweaver-Burk plot for MOPC 167 catalyzed acetylthiocholine hydrolysis (FIG. 7) gave a Michaelis constant, km =627 μM and catalytic constant, kcat =0.25 min^-1 which were close to the values measured for carbonate ester hydrolysis (Pollack et al., Science 234: 1570-1573 (1986)). However, since spontaneous hydrolysis of this substrate is low, kuncat =4×10^-5 min^-1, the kcat /kuncat =6,000 is about 10-fold greater than that recorded for MOPC 167 catalysis of the carbonate ester reaction. That rate enhancement should be increased by using idiotypic mimicry.

Test [4] has as its target mouse myeloma catalytic antibody MOPC 167 (IgA). Particulars: from Pollack et al., Science 234: 1570-1573 (1986); cited from earlier work.

In the case of `C[N+](C)(C)CCOP(=O)([O-])Oc1ccc([N+](=O)[O-])cc1` [p-nitrophenylphosphorylcholine], the “inhibition of binding of 1F1 to MOPC 167” value in test [1] was found to be 70%. Also, the “inhibition of binding of 4G4 to MOPC 167” value in test [2] turned out to be 67%. Further, the “blockage of esterase activity by the non-cleavable transition state analog” value in test [3] is reported as “almost completely blocked”. Also, in test [4], the “affinity Ka” value is on record as ~ 10^6 M^-1.
